Measured values published in US5834461A, “Tricyclic benzazepine vasopressin antagonists” (American Cyanamid Company, priority 1997, dated 1998).

Assays:
[1] = target: T1, rat kidney medullary V2 receptors (Rattus norvegicus, UniProt Q00788); assay: Binding Assay to Rat Kidney Medullary V2 Receptors; conditions: rat kidney medullary V2
T1 construct: Medullary tissues from rat kidneys are dissected out; from tissue; host or cells: rat kidney medulla membranes
Procedure, shortened: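 Competition binding: [3H]AVP at 0.8 nM, test compounds from 50% DMSO, and membranes from rat kidney medulla, left 120 min on the bench. Filtration then liquid scintillation counting measured bound ligand; 1.0 μM unlabeled ligand set non-specific binding.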

vasopressin V1 = assay: Vasopressin V1 Antagonist Activity in Conscious Rats (vasopressin vasopressor response); type: in vivo, rat (spontaneously hypertensive rats)
Procedure, shortened: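 Conscious rats had the ventral caudal tail artery cannulated into the lower abdominal aorta under local procaine anesthesia, plus a caudal vein cannula for intravenous dosing. Pulsatile blood pressure was recorded via a Statham P23Db transducer. Vasopressor responses to vasopressin injections were measured before and after compound dosing, with percent antagonism calculated relative to the pre-drug response taken as 100%.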

vasopressin V2 = assay: Vasopressin V2 Antagonist Activity in Conscious Hydrated Rats (diuretic effect); type: in vivo, normal Sprague-Dawley rats; conditions: AVP 0.4 μg/kg i.p.
Procedure, shortened: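 Conscious rats were dosed orally at 0.1–100 mg/kg, and AVP 0.4 μg/kg i.p. in peanut oil followed 1 h later. Urine volume, osmolality and Na/K/Cl were compared against AVP-treated controls, with non-AVP rats as water-loading controls.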

T1 sequence (Q00788 whole entry): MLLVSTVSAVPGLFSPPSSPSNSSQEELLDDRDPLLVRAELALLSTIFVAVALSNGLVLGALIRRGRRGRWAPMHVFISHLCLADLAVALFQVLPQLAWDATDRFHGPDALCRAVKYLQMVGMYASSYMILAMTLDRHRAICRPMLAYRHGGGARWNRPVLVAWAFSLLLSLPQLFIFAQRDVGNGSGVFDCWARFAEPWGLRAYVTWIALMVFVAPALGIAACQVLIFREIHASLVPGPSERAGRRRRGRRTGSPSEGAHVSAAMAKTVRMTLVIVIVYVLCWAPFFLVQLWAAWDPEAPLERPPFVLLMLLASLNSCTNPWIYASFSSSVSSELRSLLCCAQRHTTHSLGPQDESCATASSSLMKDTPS

| IC50 [1] | SMILES | MAX % Inhibition (vasopressin V1; 30 mg/kg i.v.) | Time of max % inhibition (vasopressin V1; 30 mg/kg i.v.) | Osmolality (vasopressin V2; 10 mg/kg orally) | Urine Volume (vasopressin V2; 10 mg/kg orally) | MAX % Inhibition (vasopressin V1; 10 mg/kg i.v.) | Time of max % inhibition (vasopressin V1; 10 mg/kg i.v.) | Osmolality (vasopressin V2; 20 mg/kg orally) | Urine Volume (vasopressin V2; 20 mg/kg orally) | Osmolality (vasopressin V2; 30 mg/kg orally) | Urine Volume (vasopressin V2; 30 mg/kg orally) |
| --- | --- | --- | --- | --- | --- | --- | --- | --- | --- | --- | --- |
| 65 nM | Cc1ccccc1C(=O)Nc1ccc(C(=O)N2Cc3ccccc3Cc3ccccc32)c(Cl)c1 [Example 260, N-[4-[(6,11-Dihydro-5H-dibenz[b,e]azepin-5-yl)-carbonyl]-3-chlorophenyl]-2-methylbenzamide] | 79% | 120 min | 498 ± 25 mOsm/kg | 13.8 ± 2.1 ml/4 hrs. |  |  |  |  |  |  |
| 82 nM | Cc1ccccc1C(=O)N(CN(C)C)c1ccc(C(=O)N2Cc3ccccc3Cc3ccccc32)cc1 [Example 267, N-[4-[(6,11-Dihydro-5H-dibenz[b,e]azepin-5-yl)-carbonyl]phenyl]-N-[(dimethylamino)methyl]-2-methylbenzamide] |  |  | 517 mOsm/kg | 7.5 ml/4 hrs. | 74% | 120 min |  |  |  |  |
| 53 nM | Cc1ccccc1C(=O)Nc1ccc(C(=O)N2CCc3cn(C)nc3-c3ccccc32)cc1 [Example 379, N-[4-[(4,5-Dihydro-2-methylpyrazolo[4,3-d][1]-benzazepin-6(2H)-yl)carbonyl]phenyl]-2-methylbenzamide] |  |  |  |  | 75% | 300 min | 483 mOsm/kg | 7 ml/4 hrs. |  |  |
| 1100 nM | Cc1ncc2c(n1)-c1ccccc1N(C(=O)c1ccc(NC(=O)c3ccccc3C)cc1)CC2 [Example 416, N-[4-[(6,7-Dihydro-2-methyl-5H-pyrimido[5,4-d][1]-benzazepin-7-yl)carbonyl]phenyl]-2-methylbenzamide] | 44% | 90 min | 1156 mOsm/kg | 4.3 ml/4 hrs. |  |  |  |  |  |  |
| 190 nM | O=C(Nc1ccc(C(=O)N2Cc3ccccc3Sc3ccccc32)cc1)c1ccccc1Cl [Example 448, N-[4-[(Dibenz[b,f][1,4]thiazepin-10(11H)yl)-carbonyl]phenyl]-2-chlorobenzamide] | 60% | 90 min |  |  |  |  |  |  | 1084 mOsm/kg | 4.8 ml/4 hrs. |
